From ChEMBL document CHEMBL4261621, “Synthesis of enamino-2-oxindoles via conjugate addition between α-azido ketones and 3-alkenyl oxindoles: Cytotoxicity evaluation and apoptosis inducing studies” (Bioorg Med Chem Lett, 2018)
Calls of active or inactive are those of the source. The rule behind the calls is not given here.

Columns and labels:
NCI-H460 [1] = test: Induction of mitochondrial membrane potential loss in human NCI-H460 cells assessed as depolarized cell population at 5 uM after 72 hrs by JC1 staining based flow cytometry (reference value: 11.63%); format: functional
HeLa [2] = test: Cytotoxicity against human HeLa cells at 30 uM after 48 hrs by MTT assay relative to control; format: functional
HCT-15 [3] = test: Cytotoxicity against human HCT15 cells after 72 hrs by MTT assay; format: functional, cell-based; conditions: HCT-15, 72 h
NCI-H460 [4] = test: Cell cycle arrest in human NCI-H460 cells assessed as accumulation at G0/G1 phase at 5 uM after 24 hrs by propidium iodide staining based flow cytometry (reference value: 49.6%); format: functional
NCI-H460 [5] = test: Cell cycle arrest in human NCI-H460 cells assessed as accumulation at S phase at 10 uM after 24 hrs by propidium iodide staining based flow cytometry (reference value: 9.93%); format: functional
NCI-H460 [6] = test: Induction of apoptosis in human NCI-H460 cells assessed as cell shrinkage at 0.25 to 10 uM after 72 hrs by acridine orange/ethidium bromide staining based fluorescence microscopic analysis; format: functional
NCI-H460 [7] = test: Induction of apoptosis in human NCI-H460 cells assessed as apoptotic body formation at 0.25 to 10 uM after 72 hrs by acridine orange/ethidium bromide staining based fluorescence microscopic analysis; format: functional, cell-based
NCI-H460 [8] = test: Cell cycle arrest in human NCI-H460 cells assessed as accumulation at G0/G1 phase at 10 uM after 24 hrs by propidium iodide staining based flow cytometry (reference value: 49.6%); format: functional
NCI-H460 [9] = test: Induction of apoptosis in human NCI-H460 cells assessed as late apoptotic cells at 5 uM after 72 hrs by Annexin V-alexa fluor 488/propidium iodide staining based flow cytometry (reference value: 0.34%); format: functional
NCI-H460 [10] = test: Induction of apoptosis in human NCI-H460 cells assessed as viable cells at 10 uM after 72 hrs by Annexin V-alexa fluor 488/propidium iodide staining based flow cytometry (reference value: 98.55%); format: functional; conditions: NCI-H460, 72 h, read-out: Activity
A549 = test: Cytotoxicity against human A549 cells after 72 hrs by MTT assay; format: functional, cell-based; conditions: A549, 72 h
NCI-H460 [11] = test: Cell cycle arrest in human NCI-H460 cells assessed as accumulation at sub-G1 phase at 2.5 uM after 24 hrs by propidium iodide staining based flow cytometry (reference value: 0.99%); format: functional
NCI-H460 [12] = test: Induction of apoptosis in human NCI-H460 cells assessed as necrotic cells at 5 uM after 72 hrs by Annexin V-alexa fluor 488/propidium iodide staining based flow cytometry (reference value: 0.34%); format: functional
NCI-H460 [13] = test: Induction of apoptosis in human NCI-H460 cells assessed as appearance of condensed nuclei at 0.25 to 10 uM after 72 hrs by DAPI staining based fluorescence microscopic analysis; format: functional, cell-based
NCI-H460 [14] = test: Cell cycle arrest in human NCI-H460 cells assessed as accumulation at G2/M phase at 5 uM after 24 hrs by propidium iodide staining based flow cytometry (reference value: 35.49%); format: functional
NCI-H460 [15] = test: Induction of mitochondrial membrane potential loss in human NCI-H460 cells assessed as depolarized cell population at 2.5 uM after 72 hrs by JC1 staining based flow cytometry (reference value: 11.63%); format: functional
NCI-H460 [16] = test: Cytotoxicity against human NCI-H460 cells after 72 hrs by MTT assay; format: functional, cell-based; conditions: NCI-H460, 72 h
NCI-H460 [17] = test: Induction of apoptosis in human NCI-H460 cells assessed as late apoptotic cells at 10 uM after 72 hrs by Annexin V-alexa fluor 488/propidium iodide staining based flow cytometry (reference value: 0.34%); format: functional
NCI-H460 [18] = test: Cell cycle arrest in human NCI-H460 cells assessed as accumulation at G2/M phase at 10 uM after 24 hrs by propidium iodide staining based flow cytometry (reference value: 35.49%); format: functional
NCI-H460 [19] = test: Induction of mitochondrial membrane potential loss in human NCI-H460 cells assessed as depolarized cell population at 1 uM after 72 hrs by JC1 staining based flow cytometry (reference value: 11.63%); format: functional
NCI-H460 [20] = test: Induction of apoptosis in human NCI-H460 cells assessed as viable cells at 1 uM after 72 hrs by Annexin V-alexa fluor 488/propidium iodide staining based flow cytometry (reference value: 98.55%); format: functional; conditions: NCI-H460, 72 h, read-out: Activity
NCI-H460 [21] = test: Induction of apoptosis in human NCI-H460 cells assessed as viable cells at 5 uM after 72 hrs by Annexin V-alexa fluor 488/propidium iodide staining based flow cytometry (reference value: 98.55%); format: functional; conditions: NCI-H460, 72 h, read-out: Activity
HeLa [22] = test: Cytotoxicity against human HeLa cells after 72 hrs by MTT assay; format: functional, cell-based
NCI-H460 [23] = test: Induction of apoptosis in human NCI-H460 cells assessed as necrotic cells at 10 uM after 72 hrs by Annexin V-alexa fluor 488/propidium iodide staining based flow cytometry (reference value: 0.34%); format: functional
NCI-H460 [24] = test: Induction of apoptosis in human NCI-H460 cells assessed as appearance of horse-shoe shaped nuclei at 0.25 to 10 uM after 72 hrs by DAPI staining based fluorescence microscopic analysis; format: functional, cell-based
NCI-H460 [25] = test: Induction of morphological changes in human NCI-H460 cells assessed as cell detachment after 72 hrs by phase contrast microscopic analysis; format: functional, cell-based
NCI-H460 [26] = test: Cell cycle arrest in human NCI-H460 cells assessed as accumulation at G0/G1 phase at 2.5 uM after 24 hrs by propidium iodide staining based flow cytometry (reference value: 49.6%); format: functional
NCI-H460 [27] = test: Cell cycle arrest in human NCI-H460 cells assessed as accumulation at S phase at 2.5 uM after 24 hrs by propidium iodide staining based flow cytometry (reference value: 9.93%); format: functional
NCI-H460 [28] = test: Induction of morphological changes in human NCI-H460 cells assessed as cell shrinkage after 72 hrs by phase contrast microscopic analysis; format: functional, cell-based
NCI-H460 [29] = test: Induction of apoptosis in human NCI-H460 cells assessed as necrotic cells at 2.5 uM after 72 hrs by Annexin V-alexa fluor 488/propidium iodide staining based flow cytometry (reference value: 0.34%); format: functional
NCI-H460 [30] = test: Induction of apoptosis in human NCI-H460 cells assessed as early apoptotic cells at 10 uM after 72 hrs by Annexin V-alexa fluor 488/propidium iodide staining based flow cytometry (reference value: 0.77%); format: functional
NCI-H460 [31] = test: Induction of mitochondrial membrane potential loss in human NCI-H460 cells assessed as increase in depolarized cell population after 72 hrs by JC1 staining based flow cytometry; format: functional
NCI-H460 [32] = test: Induction of apoptosis in human NCI-H460 cells assessed as viable cells at 2.5 uM after 72 hrs by Annexin V-alexa fluor 488/propidium iodide staining based flow cytometry (reference value: 98.55%); format: functional; conditions: NCI-H460, 72 h, read-out: Activity
NCI-H460 [33] = test: Cell cycle arrest in human NCI-H460 cells assessed as accumulation at G0/G1 phase at 1 uM after 24 hrs by propidium iodide staining based flow cytometry (reference value: 49.6%); format: functional
NCI-H460 [34] = test: Induction of apoptosis in human NCI-H460 cells assessed as early apoptotic cells at 1 uM after 72 hrs by Annexin V-alexa fluor 488/propidium iodide staining based flow cytometry (reference value: 0.77%); format: functional
HCT-15 [35] = test: Cytotoxicity against human HCT15 cells at 30 uM after 48 hrs by MTT assay relative to control; format: functional

CCOC(=O)/C(=C(\N)C(=O)c1ccccc1)C1C(=O)N(C)c2ccc(F)cc21 (stereo unspecified)
Activity (NCI-H460 [1]): 83.8%
Activity (HeLa [2]): >50%
IC50 (HCT-15 [3]): 2.97 µM
Activity (NCI-H460 [4]): 11.17%
Activity (NCI-H460 [5]): 3.42%
Activity (NCI-H460 [6]): Active
Activity (NCI-H460 [7]): Active
Activity (NCI-H460 [8]): 9.18%
Activity (NCI-H460 [9]): 3.27%
viability at 10 µM (NCI-H460 [10]): 40.4%
IC50 (A549): 3.51 µM
Activity (NCI-H460 [11]): 9.91%
Activity (NCI-H460 [12]): 0.21%
Activity (NCI-H460 [13]): Active
Activity (NCI-H460 [14]): 65.46%
Activity (NCI-H460 [15]): 71.6%
IC50 (NCI-H460 [16]): 1.4 µM
Activity (NCI-H460 [17]): 1.78%
Activity (NCI-H460 [18]): 67.37%
Activity (NCI-H460 [19]): 42.95%
viability at 1 µM (NCI-H460 [20]): 87.9%
viability at 5 µM (NCI-H460 [21]): 61.1%
IC50 (HeLa [22]): 2.99 µM
Activity (NCI-H460 [23]): 0.03%
Activity (NCI-H460 [24]): Active
Activity (NCI-H460 [25]): Dose-dependent effect
Activity (NCI-H460 [26]): 9.73%
Activity (NCI-H460 [27]): 64.98%
Activity (NCI-H460 [28]): Dose-dependent effect
Activity (NCI-H460 [29]): 0.34%
Activity (NCI-H460 [30]): 57.78%
Activity (NCI-H460 [31]): Dose-dependent effect
viability at 2.5 µM (NCI-H460 [32]): 75.9%
Activity (NCI-H460 [33]): 9.77%
Activity (NCI-H460 [34]): 8.72%
Activity (HCT-15 [35]): >50%
